# Several values for one entry are separate records, joined by “and”; a condition that tells them apart may be missing. Equal entries are not always repeated. Where two headings read alike, the source gives them in different places.
# How the values were obtained:
# [1] = Cell viability of murine macrophages (WST-1 mitochondrial respiration), in parallel with NO release; format: cell-based; conditions: mouse, read-out: Cell viability (% as compared to the negative control)
# Procedure: (§1) MURINS RAW 267.4 Macrophage cell line (Sigma-Aldrich, No. P6110401, Lot. 091006), low number of passages (less than 50).
# (§2) Complete medium: DMEM with stabilized L-glutamine (Dulbecco's Minimum Essential Medium, PAN BIOTECH. Lot 974251) supplemented with Penicillin 100 IU/ml and streptomycin 100 μg/m1 (PAN BIOTECH, Lot 225614), and 10% inactivated calf serum (PAN BIOTECH, Lot P460518), pH 7.2, freshly prepared, stored for less than 3 weeks.
# (§3) Cannabidiol (CBD) is diluted in DMSO (10 mg/mL storage solution), and subjected to an ultrasonic bath for 20 minutes. The Neutrazen™ solution is diluted in PBS (Phosphate buffer saline, Sigma-Aldrich).
# (§4) RAW 267.4 murine macrophages were inoculated into 48-well tissue culture plates at a concentration of 1.10^5 cells/ml (200 μl/well) and incubated for 24 hours at 37° C. (5% CO2).
# (§5) At the end of the incubation period, the culture medium was replaced with 200 μl of medium containing the appropriate concentrations of the material to be tested, and the cells were incubated at 37° C. (5% CO2) for one hour.
# (§6) At the end of the incubation period, pro-inflammatory E. coli LPS was added to the cell cultures (1 μg/ml. Then the cells were incubated at 37° C. (5% CO2) for 24 hours.
# (§7) In parallel with the evaluation of the release of NO, the cell viability was measured to validate the tests. Vital Stain Reagent WST-1 was used to measure cellular mitochondrial respiration. For this, the culture medium was decanted and 100 μl of WST-1 reagent ( 1/10 dilution) were added to each well. After an incubation period of 30 min at 37° C. (5% CO2), the Optical Density (OD) of each well was read at a wavelength of 450 nm by an Infinite M200 Pro fluorescence-luminescence reader (TECAN). The results obtained for the wells treated with the test material were compared with those of the untreated control wells (DMSO, 100% viability) and converted into percentage values.
# (§8) Inhibition of NO release and inhibition of cell viability were expressed as a percentage relative to the negative controls: […]
# (§9) The concentrations of test material causing a 50% decrease in NO release (IC50 (NO release)) and a 50% decrease in cell viability (IC50 (cell viability)) respectively were calculated using TableCurve software Version 2.0.
# (§10) Analysis of the anti-inflammatory activity and of the cell viability of the cannabidiol/palmitoyl tripeptide-8 (Neutrazen™) association in a mixture by isobologram analysis. For each concentration of Neutrazen™ (0.01, 0.025, 0.05 and 0.1%), different concentrations of CBD are tested (0.01, 0.025, 0.05, 0.1, 0.25, 0.5, 1 and 2.5%) to determine both the production of NO and cell viability.
# (§11) The results obtained with the different mixtures of CBD and Neutrazen™ made it possible to calculate the pairs of concentrations corresponding to a 50% reduction in the production of NO and a 50% reduction in cell viability.
# [2] = test system: RAW 267.4 murine macrophages; test: as above; format: cell-based
# Procedure: as §1, §2, §3, §4, §5, §6, §7, §8, §9, §10, §11
smiles,measurement,setting,value
C=C(C)[C@@H]1CCC(C)=C[C@H]1c1c(O)cc(CCCCC)cc1O [CBD],"viability at 25 h, 0.01 weight %","[1]; pH 7.2, CBD 0.01 weight % in mixture with NeutraZen 0.01%",98.6%
same,"viability at 25 h, 0.01 weight %","[1]; pH 7.2, CBD 0.01 weight % in mixture with NeutraZen 0.025%",102%
same,"viability at 25 h, 0.01 weight %","[1]; pH 7.2, CBD 0.01 weight % in mixture with NeutraZen 0.05%",98%
same,"viability at 25 h, 0.01 weight %","[1]; pH 7.2, CBD 0.01 weight % in mixture with NeutraZen 0.1%",101%
same,"viability at 25 h, 0.025 weight %","[1]; pH 7.2, CBD 0.025 weight % in mixture with NeutraZen 0.01%",99.7%
same,"viability at 25 h, 0.025 weight %","[1]; pH 7.2, CBD 0.025 weight % in mixture with NeutraZen 0.025%",104%
same,"viability at 25 h, 0.025 weight %","[1]; pH 7.2, CBD 0.025 weight % in mixture with NeutraZen 0.05%",99.1%
same,"viability at 25 h, 0.025 weight %","[1]; pH 7.2, CBD 0.025 weight % in mixture with NeutraZen 0.1%",99.7%
same,"viability at 25 h, 0.05 weight %","[1]; pH 7.2, CBD 0.05 weight % in mixture with NeutraZen 0.01%",97.7%
same,"viability at 25 h, 0.05 weight %","[1]; pH 7.2, CBD 0.05 weight % in mixture with NeutraZen 0.025%",96.2%
same,"viability at 25 h, 0.05 weight %","[1]; pH 7.2, CBD 0.05 weight % in mixture with NeutraZen 0.05%",101%
same,"viability at 25 h, 0.05 weight %","[1]; pH 7.2, CBD 0.05 weight % in mixture with NeutraZen 0.1%",103%
same,"viability at 25 h, 0.1 weight %","[1]; pH 7.2, CBD 0.1 weight % in mixture with NeutraZen 0.01%",102%
same,"viability at 25 h, 0.1 weight %","[1]; pH 7.2, CBD 0.1 weight % in mixture with NeutraZen 0.025%",100%
same,"viability at 25 h, 0.1 weight %","[1]; pH 7.2, CBD 0.1 weight % in mixture with NeutraZen 0.05%",100%
same,"viability at 25 h, 0.1 weight %","[1]; pH 7.2, CBD 0.1 weight % in mixture with NeutraZen 0.1%",97.1%
same,"viability at 25 h, 0.25 weight %","[1]; pH 7.2, CBD 0.25 weight % in mixture with NeutraZen 0.01%",92.2%
same,"viability at 25 h, 0.25 weight %","[1]; pH 7.2, CBD 0.25 weight % in mixture with NeutraZen 0.025%",88.5%
same,"viability at 25 h, 0.25 weight %","[1]; pH 7.2, CBD 0.25 weight % in mixture with NeutraZen 0.05%",98.6%
same,"viability at 25 h, 0.25 weight %","[1]; pH 7.2, CBD 0.25 weight % in mixture with NeutraZen 0.1%",95.7%
same,"viability at 25 h, 0.5 weight %","[1]; pH 7.2, CBD 0.5 weight % in mixture with NeutraZen 0.01%",6.34%
same,"viability at 25 h, 0.5 weight %","[1]; pH 7.2, CBD 0.5 weight % in mixture with NeutraZen 0.025%",6.95%
same,"viability at 25 h, 0.5 weight %","[1]; pH 7.2, CBD 0.5 weight % in mixture with NeutraZen 0.05%",7.76%
same,"viability at 25 h, 0.5 weight %","[1]; pH 7.2, CBD 0.5 weight % in mixture with NeutraZen 0.1%",8.56%
same,"viability at 25 h, 1 weight %","[1]; pH 7.2, CBD 1 weight % in mixture with NeutraZen 0.01%",5.66%
same,"viability at 25 h, 1 weight %","[1]; pH 7.2, CBD 1 weight % in mixture with NeutraZen 0.025%",5.19%
same,"viability at 25 h, 1 weight %","[1]; pH 7.2, CBD 1 weight % in mixture with NeutraZen 0.05%",7.74%
same,"viability at 25 h, 1 weight %","[1]; pH 7.2, CBD 1 weight % in mixture with NeutraZen 0.1%",8.58%
same,"viability at 25 h, 2.5 weight %","[1]; pH 7.2, CBD 2.5 weight % in mixture with NeutraZen 0.01%",7.21%
same,"viability at 25 h, 2.5 weight %","[1]; pH 7.2, CBD 2.5 weight % in mixture with NeutraZen 0.025%",4.12%
same,"viability at 25 h, 2.5 weight %","[1]; pH 7.2, CBD 2.5 weight % in mixture with NeutraZen 0.05%",8.14%
same,"viability at 25 h, 2.5 weight %","[1]; pH 7.2, CBD 2.5 weight % in mixture with NeutraZen 0.1%",8.93%
same,"viability at 25 h, 0.01 weight %","[1]; pH 7.2, sample alone at 0.01 weight %",99.4%
same,"viability at 25 h, 0.025 weight %","[1]; pH 7.2, sample alone at 0.025 weight %",98.3%
same,"viability at 25 h, 0.05 weight %","[1]; pH 7.2, sample alone at 0.05 weight %",97.9%
same,"viability at 25 h, 0.1 weight %","[1]; pH 7.2, sample alone at 0.1 weight %",53.1%
same,"viability at 25 h, 0.25 weight %","[1]; pH 7.2, sample alone at 0.25 weight %",8.24%
same,"viability at 25 h, 0.5 weight %","[1]; pH 7.2, sample alone at 0.5 weight %",4.73%
same,"viability at 25 h, 1 weight %","[1]; pH 7.2, sample alone at 1 weight %",2.9%
same,Cell viability (% as compared to the negative control),[2]; CBD 0.01 weight % in mixture with NeutraZen 0.01%,99.54% and 101.55%
same,Cell viability (% as compared to the negative control),[2]; CBD 0.01 weight % in mixture with NeutraZen 0.025%,101.86%
same,Cell viability (% as compared to the negative control),[2]; CBD 0.01 weight % in mixture with NeutraZen 0.05%,101.83% and 101.55%
same,Cell viability (% as compared to the negative control),[2]; CBD 0.01 weight % in mixture with NeutraZen 0.1%,100.00%
same,Cell viability (% as compared to the negative control),[2]; CBD 0.025 weight % in mixture with NeutraZen 0.01%,99.24% and 100.77%
same,Cell viability (% as compared to the negative control),[2]; CBD 0.025 weight % in mixture with NeutraZen 0.025%,100.76% and 101.08%
same,Cell viability (% as compared to the negative control),[2]; CBD 0.025 weight % in mixture with NeutraZen 0.05%,101.22% and 100.77%
same,Cell viability (% as compared to the negative control),[2]; CBD 0.025 weight % in mixture with NeutraZen 0.1%,100.15%
same,Cell viability (% as compared to the negative control),[2]; CBD 0.05 weight % in mixture with NeutraZen 0.01%,98.93% and 100.62%
same,Cell viability (% as compared to the negative control),[2]; CBD 0.05 weight % in mixture with NeutraZen 0.025%,96.18% and 100.31%
same,Cell viability (% as compared to the negative control),[2]; CBD 0.05 weight % in mixture with NeutraZen 0.05%,100.61% and 100.62%
same,Cell viability (% as compared to the negative control),[2]; CBD 0.05 weight % in mixture with NeutraZen 0.1%,99.54% and 100.00%
same,Cell viability (% as compared to the negative control),[2]; CBD 0.1 weight % in mixture with NeutraZen 0.01%,100.00% and 102.63%
same,Cell viability (% as compared to the negative control),[2]; CBD 0.1 weight % in mixture with NeutraZen 0.025%,96.34% and 99.23%
same,Cell viability (% as compared to the negative control),[2]; CBD 0.1 weight % in mixture with NeutraZen 0.05%,100.00%
same,Cell viability (% as compared to the negative control),[2]; CBD 0.1 weight % in mixture with NeutraZen 0.1%,99.54%
same,Cell viability (% as compared to the negative control),[2]; CBD 0.25 weight % in mixture with NeutraZen 0.01%,89.77% and 93.81%
same,Cell viability (% as compared to the negative control),[2]; CBD 0.25 weight % in mixture with NeutraZen 0.025%,88.09% and 89.16%
same,Cell viability (% as compared to the negative control),[2]; CBD 0.25 weight % in mixture with NeutraZen 0.05%,100.31%
same,Cell viability (% as compared to the negative control),[2]; CBD 0.25 weight % in mixture with NeutraZen 0.1%,97.40% and 98.61%
same,Cell viability (% as compared to the negative control),[2]; CBD 0.5 weight % in mixture with NeutraZen 0.01%,7.18% and 6.81%
same,Cell viability (% as compared to the negative control),[2]; CBD 0.5 weight % in mixture with NeutraZen 0.025%,7.33% and 7.43%
same,Cell viability (% as compared to the negative control),[2]; CBD 0.5 weight % in mixture with NeutraZen 0.05%,9.16% and 7.59%
same,Cell viability (% as compared to the negative control),[2]; CBD 0.5 weight % in mixture with NeutraZen 0.1%,9.47% and 8.20%
same,Cell viability (% as compared to the negative control),[2]; CBD 1 weight % in mixture with NeutraZen 0.01%,5.95% and 5.57%
same,Cell viability (% as compared to the negative control),[2]; CBD 1 weight % in mixture with NeutraZen 0.025%,5.34% and 4.95%
same,Cell viability (% as compared to the negative control),[2]; CBD 1 weight % in mixture with NeutraZen 0.05%,7.43%
same,Cell viability (% as compared to the negative control),[2]; CBD 1 weight % in mixture with NeutraZen 0.1%,8.40% and 7.59%
same,Cell viability (% as compared to the negative control),[2]; CBD 2.5 weight % in mixture with NeutraZen 0.01%,5.65% and 4.33%
same,Cell viability (% as compared to the negative control),[2]; CBD 2.5 weight % in mixture with NeutraZen 0.025%,4.49%
same,Cell viability (% as compared to the negative control),[2]; CBD 2.5 weight % in mixture with NeutraZen 0.05%,7.79% and 6.97%
same,Cell viability (% as compared to the negative control),[2]; CBD 2.5 weight % in mixture with NeutraZen 0.1%,7.63% and 6.35%
same,Cell viability (% as compared to the negative control),[2]; sample alone at 0.01 weight %,99.69% and 100.15%
same,Cell viability (% as compared to the negative control),[2]; sample alone at 0.025 weight %,99.85% and 99.23%
same,Cell viability (% as compared to the negative control),[2]; sample alone at 0.05 weight %,94.50% and 93.81%
same,Cell viability (% as compared to the negative control),[2]; sample alone at 0.1 weight %,51.15% and 55.11%
same,Cell viability (% as compared to the negative control),[2]; sample alone at 0.25 weight %,5.65% and 5.73%
same,Cell viability (% as compared to the negative control),[2]; sample alone at 0.5 weight %,3.97% and 3.25%
same,Cell viability (% as compared to the negative control),[2]; sample alone at 1 weight %,1.98% and 1.86%
same,Cell viability (% as compared to the negative control),[2]; sample alone at 2.5 weight %,1.98% and 2.14% and 0.46%

# Reference: patent US20230255864A1, “NOVEL COMPOSITIONS COMBINING HEMP DERIVATIVES AND AT LEAST ONE PEPTIDE AND USE THEREOF” (FRANCE COSMEPHYL-LAB, priority 2020, published 2023)
